Laboratory results published in patent US8957093B2, “N-biphenylmethylindole modulators of PPARG” (The Scripps Research Institute, priority 2011, dated 2015).
Read-outs that look alike come from different tables or passages of the source.

What was measured:
[1] = molecular target: Gal-4-PPAR (human PPAR LBD fused to GAL4 DNA-binding domain) (Homo sapiens (Human), UniProt P37231); test: GAL4-PPARG LBD / UAS-luciferase transactivation assay in HEK 293T cells; format: cell-based
GST-PPARG-LBD = GST-PPARG-LBD (Homo sapiens (Human), UniProt P37231); test: Lanthascreen PPARG competitive binding assay (Invitrogen, TR-FRET); conditions: NA = not active, inc = incomplete curve, read-out: IC50 (nM) Lantha
Sequence of GST-PPARG-LBD (P37231 238-503): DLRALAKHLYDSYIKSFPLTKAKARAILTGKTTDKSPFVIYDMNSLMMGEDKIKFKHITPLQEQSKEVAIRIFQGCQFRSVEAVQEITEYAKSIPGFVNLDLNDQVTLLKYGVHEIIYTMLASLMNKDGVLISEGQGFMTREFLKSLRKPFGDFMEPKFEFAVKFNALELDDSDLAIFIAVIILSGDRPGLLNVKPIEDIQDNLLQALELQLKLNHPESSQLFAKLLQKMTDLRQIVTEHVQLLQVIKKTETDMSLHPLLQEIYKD
Procedure, shortened: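 Values are fold change in 520 nm/490 nm FRET ratio relative to a 2% DMSO no-ligand control, excitation 340 nm. Compound dilutions starting at 10 μM competed against 5 nM Fluormone Pan-PPAR Green for GST-PPARG-LBD bound by 5 nM Tb anti-GST antibody. Incubation 2 h in the dark in assay buffer C, triplicate wells.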

[2] = GAL4 transactivation, HEK 293T cells; NA = not active; read-out: EC50 (nM) GAL4
[3] = HEK-293T, 18 h; read-out: % transactivation at 10 μM (GAL4)
[4] = Lanthascreen competitive binding
[5] = HEK-293T, 18 h, read-out: % transactivation at 10 μM (GAL4)
[6] = Lanthascreen PPARG competitive binding

Sequence of Gal-4-PPAR (human PPAR LBD fused to GAL4 DNA-binding domain) (P37231 238-503): as above

Structure (SMILES)	EC50 [1, 2] [nM]	activation at 10 µM [1, 3] [%]	IC50 (GST-PPARG-LBD; [4]) [nM]	activation at 10 µM [1, 5] [%]	IC50 (GST-PPARG-LBD; [6]) [nM]
Cc1c(C)n(Cc2ccc(-c3ccccc3C(=O)O)cc2)c2ccc(C(=O)N[C@H](C)c3c(Cl)cccc3Cl)cc12 [Example 141, (R)-4′-((5-((1-(2,6-dichlorophenyl)ethyl)carbamoyl)-2,3-dimethyl-1H-indol-1-yl)methyl)-[1,1′-biphenyl]-2-carboxylic acid]	529	20	30	–	–
Cc1c(C)n(Cc2ccc(-c3ccccc3C(=O)O)cc2)c2ccc(C(=O)N[C@@H](C)c3c(Cl)cccc3Cl)cc12 [Example 142, (S)-4′-((5-((1-(2,6-dichlorophenyl)ethyl)carbamoyl)-2,3-dimethyl-1H-indol-1-yl)methyl)-[1,1′-biphenyl]-2-carboxylic acid]	6060	15	51	–	–
Cc1c(C)n(Cc2ccc(-c3ccccc3C(=O)O)cc2)c2ccc(C(=O)N[C@@H](C)c3cccc4c3OCO4)cc12 [Example 143, (S)-4′-((5-((1-(benzo[d][1,3]dioxol-4-yl)ethyl)carbamoyl)-2,3-dimethyl-1H-indol-1-yl)methyl)-[1,1′-biphenyl]-2-carboxylic acid]	189	45	10	–	–
Cc1c(C)n(Cc2ccc(-c3ccccc3C(=O)O)cc2)c2ccc(C(=O)N[C@@H](C)c3ccccn3)cc12 [Example 144, (S)-4′-((2,3-dimethyl-5-((1-(pyridin-2-yl)ethyl)carbamoyl)-1H-indol-1-yl)methyl)-[1,1′-biphenyl]-2-carboxylic acid]	13	25	2	–	–
Cc1c(F)cccc1[C@H](C)NC(=O)c1ccc2c(c1)c(C)c(C)n2Cc1ccc(-c2ccccc2C(=O)O)cc1 [Example 145, (S)-4′-((5-((1-(3-fluoro-2-methylphenyl)ethyl)carbamoyl)-2,3-dimethyl-1H-indol-1-yl)methyl)-[1,1′-biphenyl]-2-carboxylic acid]	70	35	< 1	–	–
COc1cc(F)cc([C@H](C)NC(=O)c2ccc3c(c2)c(C)c(C)n3Cc2ccc(-c3ccccc3C(=O)O)cc2)c1 [Example 146, (S)-4′-((5-((1-(3-fluoro-5-methoxyphenyl)ethyl)carbamoyl)-2,3-dimethyl-1H-indol-1-yl)methyl)-[1,1′-biphenyl]-2-carboxylic acid]	455	30	12	–	–
COc1cc(OC)cc([C@H](C)NC(=O)c2ccc3c(c2)c(C)c(C)n3Cc2ccc(-c3ccccc3C(=O)O)cc2)c1 [Example 147, (S)-4′-((5-((1-(3,5-dimethoxyphenyl)ethyl)carbamoyl)-2,3-dimethyl-1H-indol-1-yl)methyl)-[1,1′-biphenyl]-2-carboxylic acid]	9280	20	20	–	–
Cc1c(C)n(Cc2ccc(-c3ccccc3C(=O)O)cc2)c2ccc(C(=O)N[C@@H](C)c3ccncc3Cl)cc12 [Example 148, (S)-4′-((5-((1-(3-chloropyridin-4-yl)ethyl)carbamoyl)-2,3-dimethyl-1H-indol-1-yl)methyl)-[1,1′-biphenyl]-2-carboxylic acid]	7540	35	41	–	–
Cc1c(C)n(Cc2ccc(-c3ccccc3C(=O)O)cc2)c2ccc(C(=O)N[C@@H](C)c3ccnc4ccccc34)cc12 [Example 149, (S)-4′-((2,3-dimethyl-5-((1-(quinolin-4-yl)ethyl)carbamoyl)-1H-indol-1-yl)methyl)-[1,1′-biphenyl]-2-carboxylic acid]	1680	15	6	–	–
Cc1c(C)n(Cc2ccc(-c3ccccc3C(=O)O)cc2)c2ccc(C(=O)N[C@@H](C)c3ccc(F)cc3F)cc12 [Example 150, (S)-4′-((5-((1-(2,4-difluorophenyl)ethyl)carbamoyl)-2,3-dimethyl-1H-indol-1-yl)methyl)-[1,1′-biphenyl]-2-carboxylic acid]	180	30	5	–	–
CCOc1cccc([C@H](C)NC(=O)c2ccc3c(c2)c(C)c(C)n3Cc2ccc(-c3ccccc3C(=O)O)cc2)c1 [Example 151, (S)-4′-((5-((1-(3-ethoxyphenyl)ethyl)carbamoyl)-2,3-dimethyl-1H-indol-1-yl)methyl)-[1,1′-biphenyl]-2-carboxylic acid]	618	–	21	25	–
Cc1c(C)n(Cc2ccc(-c3ccccc3C(=O)O)cc2)c2ccc(C(=O)N[C@@H](C)c3cccc4ccccc34)cc12 [Example 152, (S)-4′-((2,3-dimethyl-5-((1-(naphthalen-1-yl)ethyl)carbamoyl)-1H-indol-1-yl)methyl)-[1,1′-biphenyl]-2-carboxylic acid]	766	17	256	–	–
Cc1c(C)n(Cc2ccc(-c3ccccc3C(=O)O)cc2)c2ccc(C(=O)N[C@@H](C)c3ccc(OC(F)(F)F)cc3)cc12 [Example 153, (S)-4′-((2,3-dimethyl-5-((1-(4-(trifluoromethoxy)phenyl)ethyl)carbamoyl)-1H-indol-1-yl)methyl)-[1,1′-biphenyl]-2-carboxylic acid]	4160	25	28	–	–
Cc1c(C)n(Cc2ccc(-c3ccccc3C(=O)O)cc2)c2ccc(C(=O)N[C@@H](C)c3ccc(C(F)(F)F)cc3)cc12 [Example 154, (S)-4′-((2,3-dimethyl-5-((1-(4-(trifluoromethyl)phenyl)ethyl)carbamoyl)-1H-indol-1-yl)methyl)-[1,1′-biphenyl]-2-carboxylic acid]	522	5	61	–	–
Cc1c(C)n(Cc2ccc(-c3ccccc3C(=O)O)cc2)c2ccc(C(=O)N[C@@H](C)c3cccc(F)c3)cc12 [Example 158, (S)-4′-((5-((1-(3-fluorophenyl)ethyl)carbamoyl)-2,3-dimethyl-1H-indol-1-yl)methyl)-[1,1′-biphenyl]-2-carboxylic acid]	259	–	8	40	–
Cc1c(C)n(Cc2ccc(-c3ccccc3C(=O)NC3CC3)cc2)c2ccc(C(=O)N[C@@H](C)c3cccc(C(C)C)c3)cc12 [Example 305, (S)-1-((2′-(Cyclopropylcarbamoyl)-[1,1′-biphenyl]-4-yl)methyl)-N-(1-(3-isopropylphenyl)ethyl)-2,3-dimethyl-1H-indole-5-carboxamide]	–	–	–	–	94
Cc1c(C)n(Cc2ccc(-c3ccccc3C(=O)N3CC[C@H](O)C3)cc2)c2ccc(C(=O)N[C@@H](C)c3cccc(C(C)C)c3)cc12 [Example 306, 1-((2′-((S)-3-Hydroxypyrrolidine-1-carbonyl)-[1,1′-biphenyl]-4-yl)methyl)-N-((S)-1-(3-isopropylphenyl)ethyl)-2,3-dimethyl-1H-indole-5-carboxamide]	–	–	–	–	> 500
Cc1c(C)n(Cc2ccc(-c3ccccc3C(=O)NCCO)cc2)c2ccc(C(=O)N[C@@H](C)c3cccc(C(C)C)c3)cc12 [Example 307, (S)-1-((2′-((2-Hydroxyethyl)carbamoyl)-[1,1′-biphenyl]-4-yl)methyl)-N-(1-(3-isopropylphenyl)ethyl)-2,3-dimethyl-1H-indole-5-carboxamide]	–	–	–	–	600
Cc1c(C)n(Cc2ccc(-c3ccccc3C(=O)NC[C@@H](O)C(=O)N(C)C)cc2)c2ccc(C(=O)N[C@@H](C)c3cccc(C(C)C)c3)cc12 [Example 309, 1-((2′-(((R)-3-(Dimethylamino)-2-hydroxy-3-oxopropyl)carbamoyl)-[1,1′-biphenyl]-4-yl)methyl)-N-((S)-1-(3-isopropylphenyl)ethyl)-2,3-dimethyl-1H-indole-5-carboxamide]	–	–	–	–	> 1000
Cc1c(C)n(Cc2ccc(-c3ccccc3C(=O)NCCN(C)C)cc2)c2ccc(C(=O)N[C@@H](C)c3cccc(C(C)C)c3)cc12 [Example 310, (S)-1-((2′-((2-(Dimethylamino)ethyl)carbamoyl)-[1,1′-biphenyl]-4-yl)methyl)-N-(1-(3-isopropylphenyl)ethyl)-2,3-dimethyl-1H-indole-5-carboxamide]	–	–	–	–	> 1000
Cc1c(C)n(Cc2ccc(-c3ccccc3C(=O)O)cc2)c2ccc(C(=O)N(C)Cc3ccccc3)cc12 [compound 3, 4′-((5-(Benzyl(methyl)carbamoyl)-2,3-dimethyl-1H-indol-1-yl)methyl)biphenyl-2-carboxylic acid]	–	–	206	–	–
COc1cc(CNC(=O)c2ccc3c(c2)c(C)c(C)n3Cc2ccc(-c3ccccc3C(=O)O)cc2)cc(OC)c1 [compound 22, 4′-((5-(3,5-Dimethoxybenzylcarbamoyl)-2,3-dimethyl-1H-indol-1-yl)methyl)biphenyl-2-carboxylic acid]	–	–	10	–	–
Cc1c(C)n(Cc2ccc(-c3ccccc3C(=O)O)cc2)c2ccc(C(=O)N[C@@H](C)c3ccc4ccccc4c3)cc12 [compound 26, (S)-4′-((2,3-Dimethyl-5-((1-(naphthalen-2-yl)ethyl)carbamoyl)-1H-indol-1-yl)methyl)-[1,1′-biphenyl]-2-carboxylic acid]	–	–	> 1000	–	–
Cc1c(C)n(Cc2ccc(-c3ccccc3C(=O)O)cc2)c2ccc(C(=O)NCC(=O)c3ccccc3)cc12 [compound 31, 4′-((2,3-Dimethyl-5-((2-oxo-2-phenylethyl)carbamoyl)-1H-indol-1-yl)methyl)-[1,1′-biphenyl]-2-carboxylic acid]	–	–	244	–	–
